The source of these data is ChEMBL document CHEMBL1135241 (Bioorg Med Chem Lett, 2002).

As a reminder, the Ki is the equilibrium dissociation constant of an inhibitor or competing ligand from its target. The term IC50 denotes the midpoint of a concentration-inhibition curve. Lower therefore signals higher potency.

Test [1] has as its target Delta-type opioid receptor (Rattus norvegicus, UniProt P33533). In words: Binding affinity against Opioid receptor delta 1 using [3H]DT in rat brain synaptosomes was determined. The class given is subcellular.
Test [2] deals with Mu-type opioid receptor (Cavia porcellus, UniProt P97266). Put plainly: In vitro biological activity by electrically induced smooth muscle contractions in guinea pig ileum (Opioid receptor mu 1); inhibitory concentration was evaluated. The class given is functional, tissue-based.
Chain of Mu-type opioid receptor (Cavia porcellus, UniProt P97266) (P97266 whole entry): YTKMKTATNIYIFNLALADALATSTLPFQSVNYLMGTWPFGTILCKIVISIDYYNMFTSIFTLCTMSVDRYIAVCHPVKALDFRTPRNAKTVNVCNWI
Test [3] has as its target Mu-type opioid receptor (Rattus norvegicus, UniProt P33535). In words: Binding affinity against Opioid receptor mu 1 using [3H]DAMGO in rat brain synaptosomes was determined. The class given is subcellular.
A short description of test [4]: Ratio of inhibitory concentration of guinea pig ileum to mouse vas deferens was determined. The class given is functional.
The target in test [5] is Delta-type opioid receptor (Mus musculus, UniProt P32300). Put plainly: In vitro biological activity by electrically induced smooth muscle contractions in mouse vas deferens (Opioid receptor delta 1); inhibitory concentration was evaluated. Type of test: functional.
Chain of Delta-type opioid receptor (Mus musculus, UniProt P32300) (P32300 whole entry): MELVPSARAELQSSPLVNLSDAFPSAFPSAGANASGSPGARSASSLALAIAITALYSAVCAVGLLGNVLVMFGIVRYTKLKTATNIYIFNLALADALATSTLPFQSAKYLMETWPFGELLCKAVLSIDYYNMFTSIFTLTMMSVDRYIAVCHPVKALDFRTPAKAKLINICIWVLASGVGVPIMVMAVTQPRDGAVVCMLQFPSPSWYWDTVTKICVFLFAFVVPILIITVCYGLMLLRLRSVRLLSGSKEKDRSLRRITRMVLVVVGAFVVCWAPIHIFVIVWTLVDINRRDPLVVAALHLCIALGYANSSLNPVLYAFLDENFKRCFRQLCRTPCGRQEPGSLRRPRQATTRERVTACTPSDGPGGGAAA

Chain of Delta-type opioid receptor (Rattus norvegicus, UniProt P33533) (P33533 whole entry): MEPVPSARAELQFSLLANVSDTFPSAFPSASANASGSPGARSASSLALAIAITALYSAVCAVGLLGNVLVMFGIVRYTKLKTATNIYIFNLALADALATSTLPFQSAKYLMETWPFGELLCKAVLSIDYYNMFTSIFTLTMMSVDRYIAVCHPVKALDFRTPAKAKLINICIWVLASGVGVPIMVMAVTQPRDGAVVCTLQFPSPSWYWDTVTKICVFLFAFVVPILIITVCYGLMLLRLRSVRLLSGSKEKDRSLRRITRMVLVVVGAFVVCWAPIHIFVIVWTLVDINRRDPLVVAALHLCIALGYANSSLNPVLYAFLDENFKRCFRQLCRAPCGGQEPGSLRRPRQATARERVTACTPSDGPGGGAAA
Chain of Mu-type opioid receptor (Rattus norvegicus, UniProt P33535) (P33535 whole entry): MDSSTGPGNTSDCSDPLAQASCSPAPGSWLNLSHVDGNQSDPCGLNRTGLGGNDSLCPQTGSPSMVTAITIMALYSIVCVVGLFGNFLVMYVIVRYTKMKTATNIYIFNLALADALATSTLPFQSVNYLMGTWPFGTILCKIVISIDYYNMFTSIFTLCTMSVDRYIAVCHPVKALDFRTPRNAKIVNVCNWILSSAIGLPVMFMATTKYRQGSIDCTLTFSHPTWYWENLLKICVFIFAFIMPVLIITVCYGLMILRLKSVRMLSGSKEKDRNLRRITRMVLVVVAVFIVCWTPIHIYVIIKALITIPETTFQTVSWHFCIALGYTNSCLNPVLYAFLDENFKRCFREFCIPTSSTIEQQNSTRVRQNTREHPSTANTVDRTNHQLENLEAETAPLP

For the molecule `Cc1cccc(C)c1C[C@@H](NC(=O)[C@@H](C)NC(=O)[C@@H](N)Cc1ccc(O)cc1)C(=O)NCC(=O)N[C@@H](Cc1ccc(O)cc1)C(=O)N1CCC[C@H]1C(=O)N[C@@H](CO)C(N)=O`, the Ki in test [1] came to 3300 nM. This molecule also gave an IC50 against Mu-type opioid receptor [2] of 44.4 nM.

As for `Cc1cccc(C)c1C[C@@H](NC(=O)[C@@H](C)NC(=O)[C@@H](N)Cc1ccc(O)cc1)C(=O)N[C@@H](CCC(=O)O)C(=O)N[C@H](C(=O)N[C@H](C(=O)NCC(N)=O)C(C)C)C(C)C`, the figures for the Ki (in test [1]; on Mu-type opioid receptor [3]) were 111 nM and 1960 nM, respectively. In addition, the Ratio in test [4] was 56. For the same molecule, the figures for the IC50 (at Mu-type opioid receptor [2]; in test [5]) were 8210 nM and 145 nM, respectively.

`Cc1cccc(C)c1C[C@H](NC(=O)[C@H](C)NC(=O)[C@@H](N)Cc1ccc(O)cc1)C(=O)N[C@@H](CCC(=O)O)C(=O)N[C@H](C(=O)N[C@H](C(=O)NCC(N)=O)C(C)C)C(C)C`: the Ki in test [1] is 0.00105 nM; at Mu-type opioid receptor [3] it was 1100 nM. Besides, the Ratio in test [4] turned out to be 304772. Besides, the 50% inhibitory concentration (IC50) worked out at 6700 nM at Mu-type opioid receptor [2] and 0.022 nM in test [5].

In test [1], `Cc1cccc(C)c1C[C@H](NC(=O)[C@H](C)NC(=O)[C@@H](N)Cc1ccc(O)cc1)C(=O)NCC(=O)N[C@@H](Cc1ccc(O)cc1)C(=O)N1CCC[C@H]1C(=O)N[C@@H](CO)C(N)=O` returned a Ki of 45.7 nM. The IC50 at Mu-type opioid receptor [2] came out at 1.21 nM.

For `CC(C)[C@H](NC(=O)[C@H](CC(=O)O)NC(=O)[C@H](Cc1ccccc1)NC(=O)[C@@H](C)NC(=O)[C@@H](N)Cc1ccc(O)cc1)C(=O)N[C@H](C(=O)NCC(N)=O)C(C)C` [DELTORPHIN C], the inhibition constant Ki in test [1] was found to be 0.0026 nM; on Mu-type opioid receptor [3] it was 314 nM. This molecule also yielded an IC50 against Mu-type opioid receptor [2] of 5440 nM.

Turning to `C[C@@H](NC(=O)[C@@H](N)Cc1ccc(O)cc1)C(=O)N[C@@H](Cc1ccccc1)C(=O)NCC(=O)N[C@@H](Cc1ccc(O)cc1)C(=O)N1CCC[C@H]1C(=O)N[C@@H](CO)C(N)=O` [DERMORPHIN], affinity at Mu-type opioid receptor [3] was put at a Ki of 0.092 nM. Also, at Mu-type opioid receptor [2], the half-inhibitory concentration (IC50) was 3.74 nM.
